Experimental findings from patent publication US6727232B2, “Nucleoside peptide antibiotics of AA-896” (Wyeth Holdings Corporation, priority 2001, dated 2004) are described below.

Values after ≈ are worked out from the molar mass of the structure shown. Read-outs that look alike come from different tables or passages of the source.

Common to all, as to assay: Broth dilution MIC
What all share (type): cell-based
A general note: In broth dilution the organism is exposed to a series of concentrations in liquid medium.

For one experiment, the system named is E. faecalis GC 2242. The settings on record: Enterococcus faecalis, GC2242; E. faecalis GC 2242; Mueller-Hinton broth, 18 hours at 35° C.; read-out: Antimicrobial Activity (MIC). On the procedure:
(§1) The in vitro antibacterial activity of Example 1 through Example 20 is determined against a spectrum of Gram-positive and Gram-negative bacteria by a standard broth dilution method. Serial dilution of the compounds are made in Mueller-Hinton broth and inoculated with a bacterial suspension. The lowest concentration of compound that inhibited the growth of a bacterial strain after 18 hours of incubation at 35° C. is reported as the minimal inhibitory concentration (MIC) for that strain.

In the next experiment the test system is K. pneumoniae GC 4534. As to conditions: Klebsiella pneumoniae, GC4534; K. pneumoniae GC 4534; Mueller-Hinton broth, 18 hours at 35° C.; read-out: Antimicrobial Activity (MIC). On the procedure: as §1
The subject of a further experiment is CNS GC 4547. As to conditions: CNS GC 4547; Mueller-Hinton broth, 18 hours at 35° C.; read-out: Antimicrobial Activity (MIC). On the procedure: as §1
In the next experiment the test system is S. marcescens GC 4077. As to conditions: Serratia marcescens, GC4077; S. marcescens GC 4077; Mueller-Hinton broth, 18 hours at 35° C.; read-out: Antimicrobial Activity (MIC). Here is the method: as §1
The next experiment concerns S. aureus GC 1131. As to conditions: Staphylococcus aureus, GC1131; S. aureus GC 1131; Mueller-Hinton broth, 18 hours at 35° C.; read-out: Antimicrobial Activity (MIC). On the procedure:
as §1

A further experiment has as its system E. coli GC 2203. As to conditions: Escherichia coli, GC2203; E. coli GC 2203; Mueller-Hinton broth, 18 hours at 35° C.; read-out: Antimicrobial Activity (MIC). On the procedure: as §1
In a further experiment the test system is P. aeruginosa GC 4532. As to conditions: Pseudomonas aeruginosa, GC4532; P. aeruginosa GC 4532; Mueller-Hinton broth, 18 hours at 35° C.; read-out: Antimicrobial Activity (MIC). Here is the method: as §1
In a further experiment the test system is E. faecalis GC 4555. As to conditions: Enterococcus faecalis, GC4555; E. faecalis GC 4555; Mueller-Hinton broth, 18 hours at 35° C.; read-out: Antimicrobial Activity (MIC). Here is the method: as §1
The next experiment has as its system E. faecalis GC 842. The settings on record: Enterococcus faecalis, GC842; E. faecalis GC 842; Mueller-Hinton broth, 18 hours at 35° C.; read-out: Antimicrobial Activity (MIC). Here is the method:
as §1

The subject of another experiment is E. cloacae GC 3783. As to conditions: Enterobacter cloacae, GC3783; E. cloacae GC 3783; Mueller-Hinton broth, 18 hours at 35° C.; read-out: Antimicrobial Activity (MIC). Here is the method:
as §1

The subject of the next experiment is P. aeruginosa GC 2214. The settings on record: Pseudomonas aeruginosa, GC2214; P. aeruginosa GC 2214; Mueller-Hinton broth, 18 hours at 35° C.; read-out: Antimicrobial Activity (MIC). On the procedure: as §1
In another experiment the test system is S. aureus GC 2216. As to conditions: Staphylococcus aureus, GC2216; S. aureus GC 2216; Mueller-Hinton broth, 18 hours at 35° C.; read-out: Antimicrobial Activity (MIC). Here is the method: as §1
For another experiment, the system named is E. coli GC 4559. As to conditions: Escherichia coli, GC4559; E. coli GC 4559; Mueller-Hinton broth, 18 hours at 35° C.; read-out: Antimicrobial Activity (MIC). Here is the method: as §1
Another experiment concerns S. aureus GC 4536. The settings on record: Staphylococcus aureus, GC4536; S. aureus GC 4536; Mueller-Hinton broth, 18 hours at 35° C.; read-out: Antimicrobial Activity (MIC). On the procedure:
as §1

In a further experiment the test system is CNS GC 4537. The settings on record: CNS GC 4537; Mueller-Hinton broth, 18 hours at 35° C.; read-out: Antimicrobial Activity (MIC). On the procedure: as §1
For another experiment, the system named is P. rettgeri GC 4530. The settings on record: Providencia rettgeri, GC4530; P. rettgeri GC 4530; Mueller-Hinton broth, 18 hours at 35° C.; read-out: Antimicrobial Activity (MIC). On the procedure:
as §1

A further experiment relates to M. morganii GC 4531. The settings on record: Morganella morganii, GC4531; M. morganii GC 4531; Mueller-Hinton broth, 18 hours at 35° C.; read-out: Antimicrobial Activity (MIC). Here is the method: as §1
The test system of a further experiment is E. coli GC 3226. As to conditions: Escherichia coli, GC3226; E. coli GC 3226; Mueller-Hinton broth, 18 hours at 35° C.; read-out: Antimicrobial Activity (MIC). Here is the method:
as §1

The test system of another experiment is E. coli GC 4560. As to conditions: Escherichia coli, read-out: Antimicrobial Activity (MIC). Here is the method: as §1
Another experiment relates to CNS GC 4538. The settings on record: CNS GC 4538; Mueller-Hinton broth, 18 hours at 35° C.; read-out: Antimicrobial Activity (MIC). Here is the method: as §1

As a reminder, the MIC is the least concentration at which growth counts as inhibited. In the case of `CCCCCCCCCCCCNC(=O)NC[C@H]1OC(O[C@H](C2C(=O)N(CCCCCCCCCCCC)C(=O)N2CCCNC(=O)C(NC(=O)C(NC(=O)NC(C(=O)O)C(C)C)C2CCNC(=N)N2)C(O)C(C)C)[C@H]2O[C@@H](n3ccc(=O)[nH]c3=O)[C@H](O)[C@@H]2O)[C@H](OC)[C@H]1O` (stereo partly drawn) [Example 15, 14-[5-((R)-{(2S,3S,4R,5R)-5-[2,4-Dioxo-3,4-dihydro-1 (2H)-pyrimidinyl]-3,4-dihydroxytetrahydro-2-furanyl}{[(3R,4S,5R)-5-({[(dodecylamino)carbonyl]amino}methyl)-4-hydroxy-3-methoxytetrahydro-2-furanyl]oxy}methyl)-3-dodecyl-2,4-dioxo-1-imidazolidinyl]-9-(1-hydroxy-2-methylpropyl)-6-(2-iminohexahydro-4-pyrimidinyl)-2-isopropyl-4,7,10-trioxo-3,5,8,11-tetraazatetradecan-1-oic Acid], the MIC with E. faecalis GC 2242, in the experiment with K. pneumoniae GC 4534, with CNS GC 4547, in the experiment with S. marcescens GC 4077, in the experiment with S. aureus GC 1131 and in the experiment with E. coli GC 2203 was more than 32 µg/mL each time. Besides, the MIC with P. aeruginosa GC 4532, in the experiment on E. faecalis GC 4555, in the experiment with E. faecalis GC 842, with E. cloacae GC 3783, with P. aeruginosa GC 2214 and in the experiment with S. aureus GC 2216 was more than 32 µg/mL in each case. The MIC in the experiment on E. coli GC 4559, in the experiment with S. aureus GC 4536, with CNS GC 4537, with P. rettgeri GC 4530, in the experiment with M. morganii GC 4531 and in the experiment on E. coli GC 3226 was more than 32 µg/mL each time. Moreover, the MIC was more than 32 µg/mL in the experiment with E. coli GC 4560 (GC4560, E. coli GC 4560, Mueller-Hinton broth, 18 hours at 35° C.) and more than 32 µg/mL with CNS GC 4538.
For the compound `CCCCCCCCCCCCN(CCCNC(=O)C(NC(=O)C(NC(=O)NC(C(=O)O)C(C)C)C1CCNC(=N)N1)C(O)C(C)C)C(C(=O)O)[C@@H](OC1O[C@H](CN)[C@H](O)[C@H]1OC)[C@H]1O[C@@H](n2ccc(=O)[nH]c2=O)[C@H](O)[C@@H]1O` (stereo partly drawn) [Example 7, 16-((R)-{[(3R,4S,5R)-5-(Aminomethyl)-4-hydroxy-3-methoxytetrahydro-2-furanyl]oxy}{(2S,3S,4R,5R)-5-[2,4-dioxo-3,4-dihydro-1 (2H)-pyrimidinyl]-3,4-dihydroxytetrahydro-2-furanyl}methyl)-15-dodecyl-9-(1-hydroxy-2-methylpropyl)-6-(2-iminohexahydro-4-pyrimidinyl)-2-isopropyl-4,7,10-trioxo-3,5,8,11,15-pentaazaheptadecane-1,17-dioic Acid], the MIC in the experiment with E. faecalis GC 2242, in the experiment on K. pneumoniae GC 4534, in the experiment on CNS GC 4547, with S. marcescens GC 4077, in the experiment on S. aureus GC 1131 and in the experiment with E. coli GC 2203 was more than 32 µg/mL in each case. In addition, the MIC in the experiment on P. aeruginosa GC 4532, in the experiment on E. faecalis GC 4555, with E. faecalis GC 842, with E. cloacae GC 3783, in the experiment with P. aeruginosa GC 2214 and in the experiment on S. aureus GC 2216 was more than 32 µg/mL in each case. The MIC in the experiment with E. coli GC 4559, with S. aureus GC 4536, in the experiment on CNS GC 4537, with P. rettgeri GC 4530, with M. morganii GC 4531 and with E. coli GC 3226 was more than 32 µg/mL each time. The MIC in the experiment with E. coli GC 4560 (GC4560, 18 h) is 16 µg/mL (≈ 14.4 µM); in the experiment on CNS GC 4538, more than 32 µg/mL.
